Laboratory results taken from ChEMBL document CHEMBL1201862, “PubChem BioAssay data set” (2004).
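Values below derive from 48-hour exposures of cells grown in 96-well plates, with endpoints linearly interpolated between the two concentrations bracketing the appropriate inhibition level. GI50: concentration for 50% inhibition of growth.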 Active and inactive are the calls of the source. Rule as the data show it: active = GI50 up to about 1.1 µM and inactive = higher.

What was measured:
Assay in all cases: NCI anticancer screen, dose series, 48 h
SNB-19 = tested on: SNB-19
MOLT-4 = tested on: MOLT-4
MCF7 = tested on: MCF7
COLO 205 = tested on: COLO 205
MDA-N = tested on: MDA-N
OVCAR-4 = tested on: OVCAR-4
HOP-92 = tested on: HOP-92
NCI-H23 = tested on: NCI-H23
RXF 393 = tested on: RXF 393
KM12 = tested on: KM12
HCC 2998 = tested on: HCC 2998
LOX IMVI = tested on: LOX IMVI
PC-3 = tested on: PC-3
UO-31 = tested on: UO-31
HCT-116 = tested on: HCT-116
HL-60 = tested on: HL-60
OVCAR-5 = tested on: OVCAR-5
SNB-78 = tested on: SNB-78
KM-20L2 = tested on: KM-20L2

SMILES	GI50 (SNB-19)	GI50 (MOLT-4)	GI50 (MCF7)	GI50 (COLO 205)	GI50 (MDA-N)	GI50 (OVCAR-4)	GI50 (HOP-92)	GI50 (NCI-H23)	GI50 (RXF 393)	GI50 (KM12)	GI50 (HCC 2998)	GI50 (LOX IMVI)	GI50 (PC-3)	GI50 (UO-31)	GI50 (HCT-116)	GI50 (HL-60)	GI50 (OVCAR-5)	GI50 (SNB-78)	GI50 (KM-20L2)
Cc1ccc(-c2nc(N/N=C/c3ccc(O)cc3)c3ccccc3n2)cc1	26.6 µM (inactive)	20.5 µM (inactive)	10.2 µM (inactive)	23.4 µM (inactive)	7.87 µM (inactive)	1.55 µM (inactive)	32.4 µM (inactive)	7.31 µM (inactive)	21 µM (inactive)	13.5 µM (inactive)	14.1 µM (inactive)	13.2 µM (inactive)	9.06 µM (inactive)	5.47 µM (inactive)	14.1 µM (inactive)	17.2 µM (inactive)	20.3 µM (inactive)	–	–
Cc1cccc(/C=N/NC(=S)NC2CCCCC2)n1	34.8 µM (inactive)	2.26 µM (inactive)	11.4 µM (inactive)	8.85 µM (inactive)	28.4 µM (inactive)	17.3 µM (inactive)	10.1 µM (inactive)	32.4 µM (inactive)	18.5 µM (inactive)	31.1 µM (inactive)	20.7 µM (inactive)	14 µM (inactive)	6.73 µM (inactive)	18.7 µM (inactive)	4.02 µM (inactive)	2.86 µM (inactive)	15.2 µM (inactive)	–	–
O=C(Nc1ccccc1)c1cc(S(=O)(=O)NC2=Nc3ccc(Cl)cc3C(c3ccccc3)N2)c(SSc2cc(Cl)c(C(=O)Nc3ccccc3)cc2S(=O)(=O)NC2=Nc3ccc(Cl)cc3C(c3ccccc3)N2)cc1Cl (stereo not drawn)	> 100 µM (inactive)	28.4 µM (inactive)	> 100 µM (inactive)	> 100 µM (inactive)	> 100 µM (inactive)	> 100 µM (inactive)	> 100 µM (inactive)	> 100 µM (inactive)	> 100 µM (inactive)	> 100 µM (inactive)	> 100 µM (inactive)	> 100 µM (inactive)	> 100 µM (inactive)	> 100 µM (inactive)	> 100 µM (inactive)	> 36.1 µM (inactive)	> 61.5 µM (inactive)	–	–
CCOC(=O)c1nc2ccc(Cl)cc2c2c1Cc1ccccc1-2	> 100 µM (inactive)	> 100 µM (inactive)	–	> 100 µM (inactive)	–	> 100 µM (inactive)	–	> 100 µM (inactive)	19.7 µM (inactive)	> 100 µM (inactive)	> 100 µM (inactive)	> 100 µM (inactive)	–	> 100 µM (inactive)	> 100 µM (inactive)	–	> 100 µM (inactive)	> 100 µM (inactive)	> 100 µM (inactive)
C=C1[C@H](OC(=O)C(C)C)[C@]23CC4(O)[C@@H]5[C@@]6(C)CCC[C@]57C([C@@H]2C[C@@]1(O)[C@H](O)[C@@H]73)N4C6	> 100 µM (inactive)	> 100 µM (inactive)	> 100 µM (inactive)	> 100 µM (inactive)	> 100 µM (inactive)	> 100 µM (inactive)	> 100 µM (inactive)	> 100 µM (inactive)	> 100 µM (inactive)	> 100 µM (inactive)	27 µM (inactive)	> 100 µM (inactive)	> 100 µM (inactive)	> 100 µM (inactive)	> 100 µM (inactive)	> 100 µM (inactive)	> 100 µM (inactive)	–	–
COC(=O)C1=CC2OC1(C)CCC2=O (stereo not drawn)	> 100 µM (inactive)	45.9 µM (inactive)	–	> 100 µM (inactive)	–	> 100 µM (inactive)	–	99.3 µM (inactive)	> 100 µM (inactive)	> 100 µM (inactive)	> 100 µM (inactive)	> 100 µM (inactive)	–	> 100 µM (inactive)	85.3 µM (inactive)	26.9 µM (inactive)	> 100 µM (inactive)	–	> 100 µM (inactive)
CN(C)Cc1cc(/N=N/c2ccccc2Cl)cc(CN(C)C)c1O	> 100 µM (inactive)	20.5 µM (inactive)	> 100 µM (inactive)	20.5 µM (inactive)	29.2 µM (inactive)	60.1 µM (inactive)	21.5 µM (inactive)	> 100 µM (inactive)	31.6 µM (inactive)	77.6 µM (inactive)	48.2 µM (inactive)	16.9 µM (inactive)	33.5 µM (inactive)	23.3 µM (inactive)	53 µM (inactive)	20.8 µM (inactive)	46.9 µM (inactive)	–	–
Cc1ccc(/C=C/C(=O)C(C)(C)CN2CCCCC2)cc1	2.57 µM (inactive)	2.47 µM (inactive)	–	3.66 µM (inactive)	–	10.1 µM (inactive)	–	11.5 µM (inactive)	5.11 µM (inactive)	3.28 µM (inactive)	15 µM (inactive)	9.55 µM (inactive)	–	10.3 µM (inactive)	10.5 µM (inactive)	–	15.2 µM (inactive)	7.29 µM (inactive)	2.86 µM (inactive)
O=C(CC(O)(C(F)(F)F)C(F)(F)F)C(c1ccccc1)C(O)(C(F)(F)F)C(F)(F)F (stereo not drawn)	18.3 µM (inactive)	62.8 µM (inactive)	45.7 µM (inactive)	11.4 µM (inactive)	78.2 µM (inactive)	> 100 µM (inactive)	3.72 µM (inactive)	6.47 µM (inactive)	5.14 µM (inactive)	8.55 µM (inactive)	9.1 µM (inactive)	55.7 µM (inactive)	4.15 µM (inactive)	10.3 µM (inactive)	16.4 µM (inactive)	9.71 µM (inactive)	> 100 µM (inactive)	–	–
CCc1cc(Cc2cc(CC)c(NC(=O)C(=O)CC(=O)c3sc(-c4cccnc4)nc3C)c(CC)c2)cc(CC)c1NC(=O)C(=O)CC(=O)c1sc(-c2cccnc2)nc1C	> 100 µM (inactive)	> 100 µM (inactive)	> 100 µM (inactive)	> 100 µM (inactive)	> 100 µM (inactive)	> 100 µM (inactive)	> 100 µM (inactive)	> 100 µM (inactive)	> 100 µM (inactive)	> 100 µM (inactive)	> 100 µM (inactive)	> 100 µM (inactive)	> 100 µM (inactive)	> 100 µM (inactive)	> 100 µM (inactive)	> 100 µM (inactive)	> 100 µM (inactive)	–	–
Cc1cc(Cl)ccc1Nc1sc(C(=O)c2cc3cc(Cl)ccc3o2)c(N)c1C#N	6.89 µM (inactive)	> 53.3 µM (inactive)	8.38 µM (inactive)	> 69.8 µM (inactive)	79.3 µM (inactive)	3.59 µM (inactive)	47 µM (inactive)	7.41 µM (inactive)	27.7 µM (inactive)	6.15 µM (inactive)	3.1 µM (inactive)	> 100 µM (inactive)	6.08 µM (inactive)	34.1 µM (inactive)	18.4 µM (inactive)	> 80.5 µM (inactive)	> 43.7 µM (inactive)	–	–
COC(=O)c1ccccc1C1CN=NC12Cc1ccc(C)cc1C2=O (stereo not drawn)	70.3 µM (inactive)	47.2 µM (inactive)	72.8 µM (inactive)	60.8 µM (inactive)	27.7 µM (inactive)	32.8 µM (inactive)	38.9 µM (inactive)	59 µM (inactive)	97.7 µM (inactive)	37.9 µM (inactive)	64.7 µM (inactive)	48.1 µM (inactive)	37.1 µM (inactive)	34.7 µM (inactive)	38.6 µM (inactive)	33.3 µM (inactive)	> 100 µM (inactive)	–	–
C=CCn1c(=O)ccn(/C(=C/C(=O)OCC)C(=O)OCC)c1=O	29.4 µM (inactive)	2.99 µM (inactive)	3.94 µM (inactive)	1.74 µM (inactive)	15.5 µM (inactive)	12.4 µM (inactive)	2.36 µM (inactive)	17.1 µM (inactive)	14.1 µM (inactive)	17.5 µM (inactive)	16.5 µM (inactive)	6.7 µM (inactive)	14.6 µM (inactive)	14.9 µM (inactive)	7.1 µM (inactive)	1.76 µM (inactive)	15.6 µM (inactive)	–	–
Cc1ccc(S(=O)(=O)NN=C2C(C)(C)CC2(C)C)cc1	> 100 µM (inactive)	> 100 µM (inactive)	> 100 µM (inactive)	> 100 µM (inactive)	> 100 µM (inactive)	> 100 µM (inactive)	> 100 µM (inactive)	> 100 µM (inactive)	> 100 µM (inactive)	> 100 µM (inactive)	> 100 µM (inactive)	> 100 µM (inactive)	> 100 µM (inactive)	> 100 µM (inactive)	> 100 µM (inactive)	> 100 µM (inactive)	> 100 µM (inactive)	–	–
CC1=C(C)CC2C(=O)N(c3cc(C(C)(C)C)ccc3C(C)(C)C)C(=O)C2C1 (stereo not drawn)	23.1 µM (inactive)	> 100 µM (inactive)	0.776 µM (active)	> 100 µM (inactive)	> 100 µM (inactive)	> 100 µM (inactive)	26.2 µM (inactive)	94.4 µM (inactive)	23.8 µM (inactive)	> 100 µM (inactive)	52.6 µM (inactive)	> 100 µM (inactive)	62.2 µM (inactive)	> 100 µM (inactive)	50 µM (inactive)	> 100 µM (inactive)	> 100 µM (inactive)	–	–
O=C1CC2(CCNCC2)C(=O)N1N1CCOCC1	> 100 µM (inactive)	> 100 µM (inactive)	> 100 µM (inactive)	> 100 µM (inactive)	> 100 µM (inactive)	> 100 µM (inactive)	> 100 µM (inactive)	> 100 µM (inactive)	> 100 µM (inactive)	> 100 µM (inactive)	> 100 µM (inactive)	> 100 µM (inactive)	> 100 µM (inactive)	> 100 µM (inactive)	> 100 µM (inactive)	> 100 µM (inactive)	> 100 µM (inactive)	–	–
